Test [1] deals with T1, Glutamate carboxypeptidase 2 (Homo sapiens, UniProt Q04609). Nature of the test: Inhibition of PSMA in human LNCaP cells. Type of test: cell-based.
Target sequence in this assay (Q04609 whole entry): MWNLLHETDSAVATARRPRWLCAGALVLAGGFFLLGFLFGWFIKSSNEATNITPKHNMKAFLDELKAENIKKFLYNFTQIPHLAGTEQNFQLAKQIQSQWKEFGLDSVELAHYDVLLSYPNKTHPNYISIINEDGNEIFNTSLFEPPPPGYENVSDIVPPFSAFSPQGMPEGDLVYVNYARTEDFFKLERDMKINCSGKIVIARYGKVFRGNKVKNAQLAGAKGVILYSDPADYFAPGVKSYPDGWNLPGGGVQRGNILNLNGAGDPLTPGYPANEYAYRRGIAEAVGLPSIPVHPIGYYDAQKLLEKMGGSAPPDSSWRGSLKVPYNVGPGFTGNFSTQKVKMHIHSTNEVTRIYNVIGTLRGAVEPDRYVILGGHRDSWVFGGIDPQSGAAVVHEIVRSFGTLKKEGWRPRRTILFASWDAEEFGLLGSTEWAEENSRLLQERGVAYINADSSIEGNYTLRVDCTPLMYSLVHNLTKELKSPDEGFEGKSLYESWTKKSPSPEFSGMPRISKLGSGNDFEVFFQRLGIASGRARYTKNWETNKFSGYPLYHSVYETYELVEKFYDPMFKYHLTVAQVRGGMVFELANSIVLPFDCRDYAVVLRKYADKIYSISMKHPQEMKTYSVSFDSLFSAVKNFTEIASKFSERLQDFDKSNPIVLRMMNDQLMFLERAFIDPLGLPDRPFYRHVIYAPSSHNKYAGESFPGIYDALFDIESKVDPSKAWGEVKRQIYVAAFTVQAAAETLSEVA
For test [2], the target named is T1, Glutamate carboxypeptidase 2. Nature of the test: Reversible inhibition of purified PSMA at 10 times IC50 after 25 mins measured after 100 fold dilution.
Target sequence in this assay (Q04609 whole entry, looked up): as the sequence (Q04609 whole entry) above

The source made the active and inactive calls. The rule behind the calls is not given here.

As for `CCN1/C(=C/C=C/C=C/C2=[N+](CCCCCC(=O)[O-])c3ccc4c(S(=O)(=O)O)cc(S(=O)(=O)O)cc4c3C2(C)C)C(C)(C)c2c1ccc1c(S(=O)(=O)O)cc(S(=O)(=O)O)cc21`, the IC50 in test [1] is 6100 nM. As for `N[C@@H](CCC(=O)N[C@@H](COP(=O)(O)O[C@@H](CCC(=O)O)C(=O)O)C(=O)O)C(=O)O`, it took 144 nM to reach half-maximal inhibition in test [1] (IC50). The outcome in test [2] was Active. For `CCN1/C(=C/C=C/C=C/C2=[N+](CCCCCC(=O)N[C@@H](CCC(=O)N[C@@H](COP(=O)([O-])O[C@@H](CCC(=O)O)C(=O)O)C(=O)O)C(=O)O)c3ccc4c(S(=O)(=O)O)cc(S(=O)(=O)O)cc4c3C2(C)C)C(C)(C)c2c1ccc1c(S(=O)(=O)O)cc(S(=O)(=O)O)cc21`, in that order: 0.55 nM and “Active”.

The values are drawn from ChEMBL document CHEMBL1287667, “A targeted low molecular weight near-infrared fluorescent probe for prostate cancer” (Bioorg Med Chem Lett, 2010).
